Results from ChEMBL document CHEMBL3414466, “Synthesis and anticancer activity of N-substituted 2-arylquinazolinones bearing trans-stilbene scaffold” (Eur J Med Chem, 2015).
Activity calls are given as the source filed them. The rule behind the calls is not given here.

Experiments:
MCF7 [1] = experiment: Cytotoxicity against human MCF7 cells by MTT assay; type: functional, cell-based
MDA-MB-231 [2] = experiment: Cytotoxicity against human MDA-MB-231 cells by MTT assay; type: functional, cell-based
T47D [3] = experiment: Cytotoxicity against human T47D cells by MTT assay; type: functional, cell-based
MCF7 [4] = experiment: Potency index, ratio of etoposide IC50 to compound IC50 for human MCF7 cells; type: functional
MDA-MB-231 [5] = experiment: Potency index, ratio of etoposide IC50 to compound IC50 for human MDA-MB-231 cells; type: functional
T47D [6] = experiment: Potency index, ratio of etoposide IC50 to compound IC50 for human T47D cells; type: functional
MCF7 [7] = experiment: Induction of apoptosis in human MCF7 cells assessed as change in morphology at IC50 after 24 hrs by acridine orange/ethidium bromide staining-based fluorescence microscopic analysis; type: functional, cell-based
MDA-MB-231 [8] = experiment: Induction of apoptosis in human MDA-MB-231 cells assessed as change in morphology at IC50 after 24 hrs by acridine orange/ethidium bromide staining-based fluorescence microscopic analysis; type: functional, cell-based
MDA-MB-231 [9] = experiment: Induction of apoptosis in human MDA-MB-231 cells assessed as early apoptotic cells at IC50 after 12 hrs by annexin V-FITC/propidium iodide staining-based flow cytometric analysis (reference value: 3.82%); type: functional
MDA-MB-231 [10] = experiment: Induction of apoptosis in human MDA-MB-231 cells assessed as late apoptotic cells at IC50 after 12 hrs by annexin V-FITC/propidium iodide staining-based flow cytometric analysis (reference value: 0.01%); type: functional
MDA-MB-231 [11] = experiment: Induction of apoptosis in human MDA-MB-231 cells assessed as necrotic cells at IC50 after 12 hrs by annexin V-FITC/propidium iodide staining-based flow cytometric analysis (reference value: 0.97%); type: functional
MDA-MB-231 [12] = experiment: Induction of apoptosis in human MDA-MB-231 cells assessed as viable cells at IC50 after 12 hrs by annexin V-FITC/propidium iodide staining-based flow cytometric analysis (reference value: 95.2%); type: functional
MCF7 [13] = experiment: Induction of apoptosis in human MCF7 cells assessed as early apoptotic cells at IC50 after 12 hrs by annexin V-FITC/propidium iodide staining-based flow cytometric analysis (reference value: 2.49%); type: functional
MCF7 [14] = experiment: Induction of apoptosis in human MCF7 cells assessed as late apoptotic cells at IC50 after 12 hrs by annexin V-FITC/propidium iodide staining-based flow cytometric analysis relative to control; type: functional
MCF7 [15] = experiment: Induction of apoptosis in human MCF7 cells assessed as necrotic cells at IC50 after 12 hrs by annexin V-FITC/propidium iodide staining-based flow cytometric analysis (reference value: 0.29%); type: functional
MCF7 [16] = experiment: Induction of apoptosis in human MCF7 cells assessed as viable cells at IC50 after 12 hrs by annexin V-FITC/propidium iodide staining-based flow cytometric analysis (reference value: 97.23%); type: functional

| Compound | IC50 (MCF7 [1]) [µM] | IC50 (MDA-MB-231 [2]) [µM] | IC50 (T47D [3]) [µM] | further results |
| --- | --- | --- | --- | --- |
| CCCCn1c(-c2ccccc2/C=C/c2ccccc2)nc2ccccc2c1=O | 9.8 | 4 | 7.9 |  |
| COc1ccc(Cn2c(-c3ccccc3/C=C/c3ccccc3)nc3ccccc3c2=O)cc1 | > 100 | > 100 | > 100 |  |
| Cc1ccc(Cn2c(-c3ccccc3/C=C/c3ccccc3)nc3ccccc3c2=O)cc1 | 24.7 | 23.8 | 28.2 |  |
| CC(C)n1c(-c2ccccc2/C=C/c2ccccc2)nc2ccccc2c1=O | 6.7 | 8.4 | 6.2 |  |
| O=c1c2ccccc2nc(-c2ccccc2/C=C/c2ccccc2)n1Cc1ccccc1 | > 100 | > 100 | > 100 |  |
| C=CCn1c(-c2ccccc2/C=C/c2ccccc2)nc2ccccc2c1=O | 10.3 | 4.1 | 5.8 |  |
| CCCn1c(-c2ccccc2/C=C/c2ccccc2)nc2ccccc2c1=O | 29.4 | > 100 | > 100 |  |
| O=c1c2ccccc2nc(-c2ccccc2/C=C/c2ccccc2)n1C1CCCC1 | > 100 | > 100 | > 100 |  |
| CCC(C)n1c(-c2ccccc2/C=C/c2ccccc2)nc2ccccc2c1=O (stereo not drawn) | 3.8 | 4.9 | 3.6 | Ratio IC50 (MCF7 [4]): 2; Ratio IC50 (MDA-MB-231 [5]): 2; Ratio IC50 (T47D [6]): 2; Activity (MCF7 [7]): Active; Activity (MDA-MB-231 [8]): Active; Activity (MDA-MB-231 [9]): 16.55%; Activity (MDA-MB-231 [10]): 2.27%; Activity (MDA-MB-231 [11]): 0.97%; Activity (MDA-MB-231 [12]): 80.2%; Activity (MCF7 [13]): 26.45%; Activity (MCF7 [14]): 1.95%; Activity (MCF7 [15]): 2.14%; Activity (MCF7 [16]): 69.46% |
| COc1cc([C@@H]2c3cc4c(cc3[C@@H](O[C@@H]3O[C@@H]5CO[C@@H](C)O[C@H]5[C@H](O)[C@H]3O)[C@H]3COC(=O)[C@H]23)OCO4)cc(OC)c1O [ETOPOSIDE] |  | 10.3 | 8.9 | Activity (MDA-MB-231 [9]): 22.41%; Activity (MDA-MB-231 [10]): 0.8%; Activity (MDA-MB-231 [11]): 0.27%; Activity (MDA-MB-231 [12]): 76.53%; Activity (MCF7 [13]): 36.92%; Activity (MCF7 [14]): 0.08%; Activity (MCF7 [15]): 0.1%; Activity (MCF7 [16]): 62.89% |
| CCn1c(-c2ccccc2/C=C/c2ccccc2)nc2ccccc2c1=O | 8.7 | 8.4 | 10.2 |  |
| Cc1ccc(-n2c(-c3ccccc3/C=C/c3ccccc3)nc3ccccc3c2=O)cc1 | > 100 | > 100 | > 100 |  |
| O=c1c2ccccc2nc(-c2ccccc2/C=C/c2ccccc2)n1C1CC1 | 5.3 | 5.5 | 6.8 | Activity (MCF7 [7]): Active; Activity (MDA-MB-231 [8]): Active; Activity (MDA-MB-231 [9]): 22.41%; Activity (MDA-MB-231 [10]): 3.09%; Activity (MDA-MB-231 [11]): 4.37%; Activity (MDA-MB-231 [12]): 70.13%; Activity (MCF7 [13]): 25.88%; Activity (MCF7 [14]): 0.77%; Activity (MCF7 [15]): 0.59%; Activity (MCF7 [16]): 72.75% |
| O=c1c2ccccc2nc(-c2ccccc2/C=C/c2ccccc2)n1-c1ccccc1 | 44.9 | > 100 | > 100 |  |
| COc1ccc(-n2c(-c3ccccc3/C=C/c3ccccc3)nc3ccccc3c2=O)cc1 | > 100 | > 100 | > 100 |  |
| CC(C)Cn1c(-c2ccccc2/C=C/c2ccccc2)nc2ccccc2c1=O | 23.3 | 6.9 | 9.3 |  |
